This note sets out measurements from patent publication US8575188B2 (priority 2009, dated 2013).

Read-outs that look alike come from different tables or passages of the source.

In this test the test system is human non small cell lung cancer cell line H460. As to the kind of experiment: Antiproliferation (cytotoxicity) assay, 72 hrs under air, Alamar Blue. Type of test: cell-based. The conditions noted are these: Homo sapiens. In general terms: The colour change of resazurin is a common sign of viable cells or microbes.
[1] abbreviates: NCI-H460, H460, inhibition of proliferation, 72 hrs under air, read-out: IC50.

The term IC50 denotes the midpoint of a concentration-inhibition curve. For `CC[C@@]1(O)C(=O)OCc2c1c(N)c1n(c2=O)Cc2c-1nc1ccccc1c2/C=N/N1CCN(C)CC1` [TH1775], the IC50 under setting [1] came out at 26 nM.

In the case of `CC[C@@]1(O)C(=O)OCc2c1c([N+](=O)[O-])c1n(c2=O)Cc2c-1nc1ccccc1c2/C=N/NCCO` [TH1768], under setting [1], the IC50 was found to be 6600 nM.

In the case of `CC[C@@]1(O)C(=O)OCc2c1c([N+](=O)[O-])c1n(c2=O)Cc2c-1nc1ccccc1c2CC[Si](C)(C)C` [TH1626], the IC50 under setting [1] was more than 1000 nM.

`CC[C@@]1(O)C(=O)OCc2c1c([N+](=O)[O-])c1n(c2=O)Cc2cc3c([N+](=O)[O-])cccc3nc2-1` [TH1385]: the IC50 under setting [1] was more than 1000 nM.

As to `CC[C@@]1(O)C(=O)OCc2c1c([N+](=O)[O-])c1n(c2=O)Cc2c-1nc1ccccc1c2/C=N/N(CCO)C(=O)C(C)C` [TH1794], under setting [1], the IC50 came out at 2300 nM.

On to `CC[C@@]1(O)C(=O)OCc2c1c([N+](=O)[O-])c1n(c2=O)Cc2c-1nc1ccccc1c2/C=C/N1CCN(C)CC1` [TH1770], for which, under setting [1], the half-inhibitory concentration (IC50) was 9100 nM.

With `CC[C@@]1(O)C(=O)OCc2c1c([N+](=O)[O-])c1n(c2=O)Cc2c-1nc1ccccc1c2/C=N/c1ccc(C(C)(C)C)cc1` [TH1804], the IC50 under setting [1] was more than 50000 nM.

On to `CC[C@@]1(O)C(=O)OCc2c1c([N+](=O)[O-])c1n(c2=O)Cc2c-1nc1cccc([N+](=O)[O-])c1c2/C=N/OCCN1CCOCC1` [TH1523], for which, under setting [1], the IC50 was 830 nM.

In the case of `CC[C@@]1(O)C(=O)OCc2c1c(N)c1n(c2=O)Cc2c-1nc1ccccc1c2CC(C)(C)C` [TH1643], the IC50 under setting [1] amounted to 43 nM.

On to `CC[C@@]1(O)C(=O)OCc2c1c(N)c1n(c2=O)Cc2c-1nc1ccccc1c2C#N` [TH1801], for which the IC50 under setting [1] was found to be 23 nM.

On to `CC[C@@]1(O)C(=O)OCc2c1c([N+](=O)[O-])c1n(c2=O)Cc2c-1nc1ccccc1c2/C=N/N(CCO)C(C)=O` [TH1780], for which, under setting [1], the IC50 was found to be 28000 nM.

As for `CC[C@@]1(O)C(=O)OCc2c1c(N)c1n(c2=O)Cc2c-1nc1ccccc1c2/C=N/N(CCO)C(=O)c1ccccc1` [TH1800], the IC50 under setting [1] is 220 nM.

Take `CCOC(=O)/C=C/c1c2c(nc3ccccc13)-c1c([N+](=O)[O-])c3c(c(=O)n1C2)COC(=O)[C@]3(O)CC` [TH1781]: the IC50 under setting [1] was 28000 nM.

Consider `CC[C@@]1(O)C(=O)OCc2c1c(N)c1n(c2=O)Cc2c-1nc1ccccc1c2C(OC)OC` [TH1785], for which the IC50 under setting [1] was found to be 39 nM.

With `CC[C@@]1(O)C(=O)OCc2c1c(N)c1n(c2=O)Cc2c-1nc1ccccc1c2CN` [TH1769], under setting [1], the IC50 was 330 nM.

On to `CC[C@@]1(O)C(=O)OCc2c1c(N)c1n(c2=O)Cc2c-1nc1ccccc1c2CC[Si](C)(C)O` [TH1628], for which, under setting [1], the concentration for half-maximal inhibition (IC50) amounted to 62 nM.

As to `CCOC(=O)/C=C/c1c2c(nc3ccccc13)-c1c(N)c3c(c(=O)n1C2)COC(=O)[C@]3(O)CC` [TH1789], the IC50 under setting [1] is 31 nM.

As to `CC[C@@]1(O)C(=O)OCc2c1c([N+](=O)[O-])c1n(c2=O)Cc2c-1nc1ccccc1c2/C=N/OCCN(C)C` [TH1522], the IC50 under setting [1] was more than 1000 nM.

As for `CC[C@@]1(O)C(=O)OCc2c1c(N)c1n(c2=O)Cc2c-1nc1ccccc1c2/C=N/c1ccc(C(C)(C)C)cc1` [TH1809], the IC50 under setting [1] stood at 1400 nM.

On to `CC[C@@]1(O)C(=O)OCc2c1c(N)c1n(c2=O)Cc2c-1nc1ccccc1c2CO` [TH1599], for which the IC50 under setting [1] was 4.3 nM.

With `CC[C@@]1(O)C(=O)OCc2c1c(N)c1n(c2=O)Cc2c-1nc1ccccc1c2/C=N/N1CCOCOC1` [TH1816], under setting [1], the IC50 was 23 nM.

For `CC[C@@]1(O)C(=O)OCc2c1c(N)c1n(c2=O)Cc2c-1nc1ccccc1c2CCC(=O)OC(C)(C)C` [TH1790], under setting [1], the IC50 amounted to 46 nM.

Regarding `CC[C@@]1(O)C(=O)OCc2c1c([N+](=O)[O-])c1n(c2=O)Cc2c-1nc1ccccc1c2/C=N/c1ccccc1O` [TH1803], the IC50 under setting [1] is 3600 nM.

Consider `CC[C@@]1(O)C(=O)OCc2c1c([N+](=O)[O-])c1n(c2=O)Cc2c-1nc1ccccc1c2/C=N/N1CCOCOC1` [TH1812], for which the concentration for half-maximal inhibition (IC50) under setting [1] stood at 2800 nM.

Where the note is “NCI-H460, 72 h”, `CC[C@@]1(O)C(=O)OCc2c1c([N+](=O)[O-])c1n(c2=O)Cc2c-1nc1ccccc1c2CO[N+](=O)[O-]` [TH1598] returned an IC50 of 89 nM.
